Measurements as given in PMC5577376 (Nature chemical biology, 2017).
“Also recorded” adds a separate entry of the source. Values belong to the molecule of their own block, whether it stands above or below them.

Tests used:
[1] = tested on: cullin neddylation in HCC95 cells; assay: Cullin neddylation immunoblot, HCC95; assay type: cell-based, human; conditions: for Effect on levels of neddylated cullins: HCC95, 10 μM dosed at 0 and 24 hours, harvested at 48 hours
[2] = target: DCN1 (PONY domain) binding to N-terminally acetylated UBE2M peptide (Homo sapiens, UniProt Q96GG9)
Sequence of DCN1 (PONY domain) binding to N-terminally acetylated UBE2M peptide (Q96GG9 60-248 limits assumed): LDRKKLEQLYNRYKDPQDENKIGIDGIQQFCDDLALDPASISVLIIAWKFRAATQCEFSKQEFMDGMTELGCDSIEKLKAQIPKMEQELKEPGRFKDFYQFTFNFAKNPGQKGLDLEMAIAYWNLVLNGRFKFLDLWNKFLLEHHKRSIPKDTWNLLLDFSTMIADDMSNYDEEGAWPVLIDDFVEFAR

[3] = target: DCN1-dependent neddylation from AcUBE2M to CUL2CTD-RBX1 (Homo sapiens, UniProt Q96GG9); assay type: biochemical
Sequence of DCN1-dependent neddylation from AcUBE2M to CUL2CTD-RBX1 (Q96GG9 60-248 limits assumed): as above

DCN3 = target: T1, DCN3 (Homo sapiens, UniProt Q8IWE4); assay: Pulse-chase neddylation assay with DCN3; assay type: biochemical
T1 sequence (Q8IWE4 86-278 limits assumed): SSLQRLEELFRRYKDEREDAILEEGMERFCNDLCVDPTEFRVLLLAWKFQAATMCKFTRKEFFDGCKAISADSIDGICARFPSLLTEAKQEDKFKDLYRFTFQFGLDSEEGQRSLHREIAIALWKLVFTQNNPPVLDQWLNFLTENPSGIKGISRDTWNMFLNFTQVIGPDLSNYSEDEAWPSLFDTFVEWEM

DCN4 = target: T2, DCN4 (Homo sapiens, UniProt Q92564); assay: Pulse-chase neddylation assay with DCN4; assay type: biochemical
T2 sequence (Q92564 101-287 limits assumed): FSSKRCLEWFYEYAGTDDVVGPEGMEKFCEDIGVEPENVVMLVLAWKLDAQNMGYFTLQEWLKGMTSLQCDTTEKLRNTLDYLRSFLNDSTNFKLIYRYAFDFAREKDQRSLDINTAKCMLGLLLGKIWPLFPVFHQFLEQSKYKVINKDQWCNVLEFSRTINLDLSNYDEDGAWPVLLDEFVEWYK

DCN5 = target: T3, DCN5 (Homo sapiens, UniProt Q9BTE7); assay: Pulse-chase neddylation assay with DCN5; assay type: biochemical
T3 sequence (Q9BTE7 46-232 limits assumed): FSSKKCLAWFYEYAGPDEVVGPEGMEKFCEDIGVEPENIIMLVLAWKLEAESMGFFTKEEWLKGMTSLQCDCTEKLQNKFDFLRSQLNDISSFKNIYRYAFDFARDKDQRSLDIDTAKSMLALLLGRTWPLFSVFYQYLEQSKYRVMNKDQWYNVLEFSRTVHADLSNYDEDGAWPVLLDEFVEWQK

DCN1 = DCN1 (Homo sapiens, UniProt Q96GG9); assay: Covalent adduct formation by LC-TOF mass spectrometry, DCN1; assay type: binding; conditions: 30 μM PONY domain, 60 μM compound, overnight / 24-hour incubation
Sequence of DCN1 (Q96GG9 60-248 limits assumed): as the sequence (Q96GG9 60-248 limits assumed) above

DCN2 PONY domain = DCN2 PONY domain (Homo sapiens, UniProt Q6PH85); assay: Covalent adduct formation by TOF mass spectrometry, DCN2; assay type: binding; conditions: 30 μM PONY domain, 60 μM compound, overnight
Sequence of DCN2 PONY domain (Q6PH85 60-248 limits assumed): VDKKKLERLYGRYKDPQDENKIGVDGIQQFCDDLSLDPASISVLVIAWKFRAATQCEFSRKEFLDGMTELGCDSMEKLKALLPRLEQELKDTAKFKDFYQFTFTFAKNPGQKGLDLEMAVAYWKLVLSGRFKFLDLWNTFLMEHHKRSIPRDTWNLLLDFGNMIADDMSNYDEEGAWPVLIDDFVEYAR

DCN3 PONY domain = target: T4, DCN3 PONY domain (Homo sapiens, UniProt Q8IWE4); assay: Covalent adduct formation by TOF mass spectrometry, DCN3; assay type: binding; conditions: 30 μM PONY domain, 60 μM compound, overnight
T4 sequence (Q8IWE4 86-278 limits assumed): T1 sequence (Q8IWE4 86-278 limits assumed)

DCN4 PONY domain = target: T5, DCN4 PONY domain (Homo sapiens, UniProt Q92564); assay: Covalent adduct formation by TOF mass spectrometry, DCN4; assay type: binding; conditions: 30 μM PONY domain, 60 μM compound, overnight
T5 sequence (Q92564 101-287 limits assumed): T2 sequence (Q92564 101-287 limits assumed)

DCN5 PONY domain = target: T6, DCN5 PONY domain (Homo sapiens, UniProt Q9BTE7); assay: Covalent adduct formation by TOF mass spectrometry, DCN5; assay type: binding; conditions: 30 μM PONY domain, 60 μM compound, overnight
T6 sequence (Q9BTE7 46-232 limits assumed): T3 sequence (Q9BTE7 46-232 limits assumed)

C115A DCN1, C115G DCN1 = C115A DCN1, C115G DCN1 (Homo sapiens, UniProt Q96GG9, C115A); assay: Covalent adduct formation by TOF mass spectrometry, DCN1 Cys115 mutants; assay type: binding
Sequence of C115A DCN1, C115G DCN1 (Q96GG9 62-259 C115A): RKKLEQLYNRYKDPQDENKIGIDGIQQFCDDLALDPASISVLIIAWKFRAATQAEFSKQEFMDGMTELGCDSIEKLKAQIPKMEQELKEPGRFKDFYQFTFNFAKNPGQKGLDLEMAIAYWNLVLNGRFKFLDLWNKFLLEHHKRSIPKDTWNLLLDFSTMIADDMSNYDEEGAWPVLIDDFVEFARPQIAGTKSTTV

[4] = tested on: anchorage independent growth of HCC95 cells; assay: Soft agar colony formation assay; assay type: cell-based, human; conditions: 10 μM
[5] = tested on: DCN1-independent NEDD8 ligation from AcUBE2M to CUL2CTD; assay: Pulse-chase assay, DCN1-independent neddylation; assay type: biochemical, human
[6] = target: UBE2M-DCN1 interaction in 293T cells (Homo sapiens, UniProt Q96GG9); assay: Co-immunoprecipitation of DCN1 with UBE2M-FLAG-HA in cells; assay type: cell-based; conditions: treated 24 hours
Sequence of UBE2M-DCN1 interaction in 293T cells (Q96GG9 whole entry): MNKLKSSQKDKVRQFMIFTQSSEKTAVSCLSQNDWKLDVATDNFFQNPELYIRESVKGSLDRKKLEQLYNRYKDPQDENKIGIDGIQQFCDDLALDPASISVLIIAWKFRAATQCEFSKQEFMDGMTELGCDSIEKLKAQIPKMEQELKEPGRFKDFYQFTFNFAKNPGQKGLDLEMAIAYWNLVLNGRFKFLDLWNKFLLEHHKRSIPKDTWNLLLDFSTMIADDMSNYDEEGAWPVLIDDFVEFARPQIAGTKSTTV

[7] = tested on: levels of CRL substrates in HCC95 cells; assay: Immunoblot of cullin-RING ligase substrates, HCC95; assay type: cell-based, human
NEDD8 E1 enzyme = conditions: read-out: biochemical IC50; cited from earlier work
[8] = tested on: cellular neddylation / ubiquitination; conditions: cited from earlier work
DCN2 = DCN2 (Homo sapiens, UniProt Q6PH85); assay: Pulse-chase neddylation assay with DCN2; assay type: biochemical; conditions: 10 μM
Sequence of DCN2 (Q6PH85 60-248 limits assumed): as the sequence (Q6PH85 60-248 limits assumed) above

[9] = tested on: N-acetyl-UBE2M interactions in 293T cells; assay: AP-MS TMT interaction proteomics of UBE2M; assay type: cell-based, human
[10] = even at concentrations of 100 μM

Potency increase by electrophile, NAcM-COV versus NAcM-COVCTRL, TR-FRET [2]: > 30 fold | Potency increase by electrophile, NAcM-COV versus NAcM-COVCTRL, neddylation [3]: 2.5 fold | Activity towards DCN3 (DCN3; 50 μM): Partial activity | Activity towards DCN4 (DCN4; 50 μM): Partial activity | Inhibition of DCN5 (DCN5): lack of inhibition | Covalent adduct formation with DCN2 (DCN2 PONY domain): corresponded to adducts | Covalent adduct formation with DCN3 (DCN3 PONY domain): corresponded to adducts | Covalent adduct formation with DCN4 (DCN4 PONY domain): Both modified and unmodified forms | Covalent adduct formation with DCN5 (DCN5 PONY domain): no evidence of covalent linkage | Covalent adduct formation with DCN1 Cys115 replaced by Ala or Gly (C115A DCN1, C115G DCN1): prevented covalent adduct formation
SMILES: C=CC(=O)Nc1ccccc1CN(C(=O)Nc1cccc(C(F)(F)F)c1)C1CCN(C(C)CCC)CC1 (stereo not drawn) [NAcM-COV, N-(2-((1-(1-(pentan-2-yl)piperidin-4-yl)-3-(3-(trifluoromethyl)phenyl)ureido)methyl)phenyl)acrylamide]
Covalent adduct formation with DCN1 (DCN1): most effective; also recorded: corresponded to adducts | Effect on levels of neddylated cullins [1]: reduced levels of neddylated cullins; also recorded: most potent inhibition | Growth / colony formation of HCC95 cells in soft agar [4]: blocks growth

Effect on DCN1-UBE2M interaction by TR-FRET [2, 10]: no effect | Effect on neddylation by enzyme assays [3, 10]: no effect | Co-precipitation of DCN1 with UBE2M [6]: interaction was observed
SMILES: CCCCN1CCC(N(Cc2ccccc2)C(=O)Nc2cccnc2)CC1 [NAcM-NEG, 1-benzyl-1-(1-butylpiperidin-4-yl)-3-(pyridin-3-yl)urea]
Effect on levels of neddylated cullins [1]: no effect

Enhanced potency relative to NAcM-HIT, TR-FRET [2]: 100 fold | Increased potency toward the neddylation reaction relative to NAcM-HIT [3]: 25 fold | Inhibition of DCN2-stimulated neddylation (DCN2): inhibited | Activity toward DCN3 (DCN3; 10 μM): no activity | Activity toward DCN4 (DCN4; 10 μM): no activity | Activity toward DCN5 (DCN5; 10 μM): no activity
SMILES: CCCCN1CCC(N(Cc2ccccc2)C(=O)Nc2ccc(Cl)c(Cl)c2)CC1 [NAcM-OPT, 1-benzyl-1-(1-butylpiperidin-4-yl)-3-(3,4-dichlorophenyl)urea]
Fold decrease in UBE2M binding: CUL3 [9]: 1.9 fold | Fold decrease in UBE2M binding: CUL5 [9]: 3.2 fold | Fold decrease in UBE2M binding: DCN1 [9]: ≈ 8 fold | Effect on levels of neddylated cullins [1]: reduced levels of neddylated cullins | Levels of CRL substrates ([7]; HCC95, 10 μM): Neither NAcM-OPT treatment nor DCN1 shRNA stabilizes | Growth / colony formation of HCC95 cells in soft agar [4]: blocks growth

More lines, now with the values behind:

SMILES: CCCC(C)N1CCC(N(Cc2ccccc2NC(=O)CC)C(=O)Nc2cccc(C(F)(F)F)c2)CC1 (stereo not drawn) [NAcM-COVCTRL, N-(2-((1-(1-(pentan-2-yl)piperidin-4-yl)-3-(3-(trifluoromethyl)phenyl)ureido)methyl)phenyl)propionamide]
Effect on levels of neddylated cullins [1]: relatively reduced potency

SMILES: O=C(Nc1cccc(C(F)(F)F)c1)NC1CCN(Cc2ccccc2)CC1 [NAcM-HIT, 1-(1-benzylpiperidin-4-yl)-3-(3-(trifluoromethyl)phenyl)urea]
Inhibition of DCN1-independent NEDD8 ligation [5]: did not inhibit

SMILES: NS(=O)(=O)OC[C@@H]1C[C@@H](n2ccc3c(N[C@H]4CCc5ccccc54)ncnc32)C[C@@H]1O [MLN4924]
Effect on neddylation in cells ([1]; single dose, 1 μM): eliminates all neddylation | Levels of CRL substrates ([7]; HCC95, MLN4924 1 μM): high-level accumulation | IC50 (NEDD8 E1 enzyme): 5 nM | concentration at which cell based activity is penetrant [8]: 0.3 to 1 µM | Reduction of total cellular ubiquitination ([8]; total blockade of neddylation): 10–20%
